Patent US20040147739A1, “Novel anti-infectives” (priority 2003, published 2004)

Molecular target: T1, HCV NS5B (Hepatitis C virus genotype 1b, UniProt P26663)
T1 construct: The NS5B protein (591 amino acids, 65 kDa) of HCV
T1 sequence (P26663 2420-3010): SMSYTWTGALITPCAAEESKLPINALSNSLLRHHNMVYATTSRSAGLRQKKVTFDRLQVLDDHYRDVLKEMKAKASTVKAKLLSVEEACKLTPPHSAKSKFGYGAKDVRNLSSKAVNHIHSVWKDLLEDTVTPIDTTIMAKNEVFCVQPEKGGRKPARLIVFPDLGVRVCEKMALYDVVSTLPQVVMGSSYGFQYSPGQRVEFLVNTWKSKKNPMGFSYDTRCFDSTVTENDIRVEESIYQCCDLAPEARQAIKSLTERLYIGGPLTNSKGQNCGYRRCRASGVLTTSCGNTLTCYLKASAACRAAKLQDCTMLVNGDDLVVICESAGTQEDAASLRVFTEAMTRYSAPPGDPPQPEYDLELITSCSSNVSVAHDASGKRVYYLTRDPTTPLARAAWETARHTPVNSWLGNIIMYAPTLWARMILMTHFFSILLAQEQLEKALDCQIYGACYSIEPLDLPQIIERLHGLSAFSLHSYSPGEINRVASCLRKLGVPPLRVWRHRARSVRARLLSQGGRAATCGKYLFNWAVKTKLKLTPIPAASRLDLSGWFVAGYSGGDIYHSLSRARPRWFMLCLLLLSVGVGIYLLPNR
Test: biochemical
Details: not given
Protocol: The activity of the inventive compounds as inhibitors of HCV activity may be measured by any of the suitable methods known to those skilled in the art, including in vivo and in vitro assays. For example, the HCV NS5B inhibitory activity of the compounds of Formulas I, II and III was determined using standard assay procedures described in Behrens et al., EMBO J. 15:12-22 (1996), Lohmann et al., Virology 249:108-118 (1998) and Ranjith-Kumar et al., J. Virology 75:8615-8623 (2001).
The HCV NS5B inhibitory activity of the compounds of Formulas I, II m and IV was determined using standard procedures well known to those skilled in the art and described in, for example Behrens et al., EMBO J. 15:12-22 (1996), Lohmann et al., Virology 249:108-118 (1998) and Ranjith-Kumar et al., J. Virology 75:8615-8623 (2001).
Work on `CC(C)CCn1c(=O)c(C2=NS(=O)(=O)c3cc(I)ccc3N2)c(O)c2ccccc21` [Example 181, 4-Hydroxy-3-(7-iodo-1,1-dioxo-1,4-dihydro-1-benzo[1,2,4]thiadiazin-3-yl)-1-(3-methylbutyl)-1H-quinolin-2-one] yielded an IC50 of over 10 µM.
Compound `CCOC(=O)c1ccc2c(c1)c(O)c(C1=NS(=O)(=O)c3ccccc3N1)c(=O)n2CCC(C)C` [Example 95, 3-(1, i-Dioxo-1,4-dihydrobenzo[1,2,4]thiadiazin-3-yl)-4-hydroxy-1-(3-methylbutyl)-2-oxo-1,2-dihydroquinoline-6-carboxylic acid ethyl ester] has an IC50 of over 10 µM.

Same assay, conditions: screening rate of 10 uM
In the case of `CC(C)CCn1c(=O)c(C2=NS(=O)(=O)c3ccccc3N2)c(O)c2cc(C(=O)N(C)C)ccc21` [Example 206, 3-(1,1-Dioxo-1,4-dihydro-1-benzo[1,2,4]thiadiazin-3-yl)-4-hydroxy-1-(3-methylbutyl)-2-oxo-1,2-dihydro-quinoline-6-carboxylic acid dimethylamide], the “biological activity at the screening rate of 10 uM” value (from here on “biological activity”) is reported as “did not demonstrate biological activity”.
For `O=c1c(C2=NS(=O)(=O)c3ccccc3N2)c(O)c2ccccc2n1CCN1CCCC1` [Example 207, 3-(1,1-Dioxo-1,4-dihydro-1-benzo[1,2,4]thiadiazin-3-yl)-4-hydroxy-1-(2-pyrrolidin-1-yl-ethyl)-1H-quinolin-2-one], the “biological activity” value was “did not demonstrate biological activity”.
For `CC(C)CCn1c(=O)c(C2=NS(=O)(=O)c3c(Br)cccc3N2)c(O)c2ccccc21` [Example 203, 3-(8-Bromo-1,1-dioxo-1,4-dihydro-1-benzo[1,2,4]thiadiazin-3-yl)-4-hydroxy-1-(3-methylbutyl)-1H-quinolin-2-one], the “biological activity” value was “did not demonstrate biological activity”.

System: not given
Test: not given
Details: not given
`O=c1c(C2=Nc3ccccc3S(=O)(=O)N2)c(O)c2ccccc2n1CC1CCCCC1` [Example 11, 1-Cyclohexylmethyl-3-(1,1-dioxo-1,2-dihydrobenzo[1,2,4]thiadiazin-3-yl)-4-hydroxy-1H-quinolin-2-one] gave a melting point of 232 to 235 °C.
For `CC(Br)CCn1c(=O)c(C2=Nc3ccccc3S(=O)(=O)N2)c(O)c2ccccc21` (centres unmarked) [Example 10, 1-(3-Bromobutyl)-3-(1,1-dioxo-1,2-dihydrobenzo[1,2,4]thiadiazin-3-yl)-4-hydroxy-1-1H-quinolin-2-one], the melting point was 190 to 194.5 °C (dec.).
Work on `O=c1c(C2=Nc3ccccc3S(=O)(=O)N2)c(O)c2ccccc2n1CCCC(F)(F)F` [Example 18, 3-(1, l-Dioxo-1,2-dihydrobenzo[1,2,4]thiadiazin-3-yl)-4-hydroxy-1-(4,4,4-trifluorobutyl)-1H-quinolin-2-one] yielded a melting point of 248.9 to 250 °C.
With `O=c1c(C2=NS(=O)(=O)c3cc(I)ccc3N2)c(O)c2ccccc2n1CCC1CC1` the melting point was 234 to 236 °C.
In the case of `O=c1c(C2=Nc3ccccc3S(=O)(=O)N2)c(O)c2ccccc2n1CCCCO` [Example 20, 3-(1,1-Dioxo-1,2-dihydrobenzo[1,2,4]thiadiazin-3-yl)-4-hydroxy-1-(4-hydroxybutyl)-1H-quinolin-2-one], the melting point is reported as 238.4 to 239.6 °C.
`CC(C)=CCn1c(=O)c(C2=Nc3ccccc3S(=O)(=O)N2)c(O)c2ccccc21` [Example 12, 3-(1,1-Dioxo-1,2-dihydrobenzo[1,2,4]thiadiazin-3-yl)-4-hydroxy-1-(3-methylbut-2-eneyl)-1H-quinolin-2-one] showed a melting point of 249.1 to 251.1 °C.
